Data: patent US5480882A, “Benzoxazinone and benzothiazinone derivatives having cardiovascular activity” (Italfarmaco S.p.A., priority 1992, dated 1996)
Counter-ions that a name gives are not always drawn.

How the values were obtained:
[1] = system: Arg-vasopressin induced coronary spasm, anaesthetized Sprague Dawley rats; experiment: In vivo antianginal activity, Arg-vasopressin-induced coronary spasm (T-wave increase) in anaesthetized rats; details: Rattus norvegicus, iv, 4 increasing doses; 50% inhibition of T-wave increase induced by i.v. Arg-vasopressin in anaesthetized rats
Method: The in vivo antianginal activity was determined on anaesthetized Sprague Dawley rats of weight 350-400 g, in accordance with the method of M. Leitold et al., Arzeim. Forsch., 36, 1454 1986. The test was carried out by intravenously administering to the animals one I.U./Kg, equivalent to […] of Arg-vasopressin, thus inducing a reproducible coronary spasm that may be electrocardiographically monitored by an increase of the T-wave. The animals were treated intravenously with 4 increasing doses of the compounds of the present invention to measure their ED50 (i.e., the dose giving 50% inhibition of the T-wave increase).

[2] = system: rabbit aorta strip contracted with noradrenaline; experiment: Vasodilative activity in vitro, inhibition of noradrenaline-induced contraction of rabbit aorta strip; type: cell-based; details: Oryctolagus cuniculus; 50% inhibition of noradrenaline contraction of rabbit aorta strip
Method: The vasodilative activity of the compounds of the present invention were determined by testing of a rabbit aorta strip contracted with noradrenaline. Using the method described by K. Murakami et al. Eur. J. Pharmacol., 141, 195, 1987., IC50 values (i.e. the micromolar (μM) concentrations of active substances causing a 50% inhibition of the contraction of the aorta strip), were determined.

| IC50 [2] [nM] | Structure (SMILES) | ED50 [1] [mg/kg] |
| --- | --- | --- |
| 71 | N#Cc1ccc2c(c1)C(=O)N(CCO[N+](=O)[O-])CO2 [Example 4, 6-Ciano-2,3-dihydro-3-(2'-nitrooxyethyl)-4H-1.3-benzoxazin-4-one] | 0.0115 |
| 640 | CN(C)C=Nc1ccc2c(c1)C(=O)N(CCO[N+](=O)[O-])CO2 [Example 3, 2,3-Dihydro-6-(N',N',-dimethyl-N-formimido)-3-(2'-nitro-oxyethyl)-4H-1,3-benzoxazin-4-one-HCl] | 0.0097 |
| 57 | O=C1c2ccc(O)cc2OCN1CCO[N+](=O)[O-] [Example 6, 2,3-Dihydro-7-hydroxy-3-(2'-nitrooxyethyl)-4H-1,3-benzoxazin-4-one] | – |
| 270 | CC(=O)Nc1ccc2c(c1)C(=O)N(CCO[N+](=O)[O-])CO2 [Example 2, 6-Acetamido-2,3-dihydro-3-(2'-nitrooxyethyl)-4H-1,3-benzoxazin-4-one] | 0.021 |
| 96 | O=C1c2cc(O)ccc2OCN1CCO[N+](=O)[O-] [Example 5, 2,3-Dihydro-6-hydroxy-3-(2'-nitrooxyethyl)-4H-1,3-benzoxazin-4-one] | – |

| Structure (SMILES) | IC50 [2] [nM] | ED50 [1] [mg/kg] |
| --- | --- | --- |
| O=C1c2cc([N+](=O)[O-])ccc2OCN1CCO[N+](=O)[O-] [Example 1, 2,3-Dihydro-3-(2'-nitrooxyethyl)-6-nitro,4H-1,3-benzoxazin-4-one] | 21 | 0.0637 |
